Assay results published in publication PMC12446003, “Pharmacological characterization of linaprazan glurate (X842), a novel potassium-competitive acid blocker, in vitro and in vivo” (Frontiers in Pharmacology, 2025).
Read-outs that look alike come from different tables or passages of the source.

What was measured:
[1] = Pharmacokinetic assessment of X842 in dogs (IV, single oral, repeated oral); assay type: in vivo; settings: beagle, dog, plasma; for half-life at 1 day: read-out: t1/2 Day 1 (converted); for half-life at 7 day: read-out: t1/2 Day 7 (converted)
Procedure: (§1) Pharmacokinetic assessments were conducted by Shanghai Medicilon Inc. Using C18 solid-phase extraction (Shimadzu UFLC-20A, ACE 3, C18, 3.0 µm, 150 × 4.6 mm; Shimadzu, Japan) with the following conditions: mobile phase A: 1 M ammonium acetate in water, mobile phase B: 100% acetonitrile; gradient 0–5 min: 100% A, 5–30 min: 85% A, 35–63 min: 75% A, 63–65 min: 55% A, 65–70 min: 0% A, 72–87 min: 100% A; flow rate 0.7 mL/min; column temperature 30 °C ([Weidof and Covey, 1992]). […] Bioavailability was calculated as F (%) = (Doseiv × AUCpo(0–24h)) ÷ (Dosepo × AUCiv (0–24h)) × 100%, where “po” represents oral administration and “iv” represents intravenous administration.
Male and female Beagle dogs weighing around 9 kg were arbitrarily selected for testing. Food and water were provided ad libitum, except during overnight fasting (15–16 h) prior to oral drug administration ([Adebowale et al., 2002]). X842 were dissolved in the PEG400/ethanol/Solutol/water mixture (40:10:5:45% v/v) and methane sulfonic acid was used to adjust to pH 3, yielding solutions with concentrations of 0.3 mg/mL, 1.2 mg/mL, and 4.8 mg/mL for oral administration. There were four rounds of drug administration. One week was required between the rounds of testing according to the conditions for of animal welfare maintenance. For IV injection, a drug solution with a concentration of 0.3 mg/mL was prepared and filtered through a 0.22-μm filter. Blood samples were collected via the jugular vein using the same procedures as were used for the rat experiments. Following centrifugation, the plasma was transferred to clean tubes and stored at −80 °C until further analysis. All animals were euthanized by phenobarbital injection after the final blood sample collection. Pharmacokinetic assessments were conducted as described in 2.2.1.

[2] = Pharmacokinetic assessment of X842 in rats (IV, single oral, repeated oral); assay type: in vivo, Sprague-Dawley rats; settings: for Cmax / AUC(0-t) / half-life: Sprague-Dawley, rat, plasma; for AUC(0-t): read-out: AUC(0–24h)
Procedure: Male and female Sprague-Dawley rats weighing approximately 150 g were housed individually with a 12-h light/dark cycle. Food and water were provided ad libitum, except during overnight fasting (10–16 h) prior to oral drug administration, as described previously ([Kotegawa et al., 1998]; [Kotegawa et al., 2002]). To investigate the absorption kinetics of X842 (prodrug) and linaprazan (metabolite, parent drug) in rats after oral and intravenous administration of X842, X842 were dissolved in 5% Solutol HS15/45% ethanol/10% PEG400/40% saline, and methane sulfonic acid was used to adjust to pH 3, yielding solutions with concentrations of 0.6 mg/mL, 2.4 mg/mL, and 9.6 mg/mL for oral administration. For intravenous (IV) injection, a drug solution (0.6 mg/mL) was prepared and filtered through a 0.22-μm filter. Blood samples were collected via the jugular vein of conscious rats (without intubation, narcotics, or antibiotics) prior to dosing and at 0.083, 0.25, 0.5, 1, 2, 4, 6, 8, and 24 h after dosing. Blood samples were placed into tubes containing sodium heparin and centrifuged at 3,500 rpm for 10 min at 4 °C. Following centrifugation, the plasma was transferred to clean tubes and stored at −80 °C until further analysis. All animals were euthanized by carbon dioxide (CO2) inhalation after the final blood sample collection.
as §1

[3] = 1.2 mg/kg, female dogs, repeat oral X842, Day 1, analyte as labelled
[4] = 1.2 mg/kg, female dogs, repeat oral X842, Day 7, analyte as labelled
[5] = female, iv, 0.6 mg/kg, female rats, intravenous X842, plasma analyte as labelled
[6] = female, po, 0.6 mg/kg, female rats, single oral X842 0.6 mg/kg, analyte as labelled
[7] = female, po, 2.4 mg/kg, female rats, single oral X842 2.4 mg/kg, analyte as labelled
[8] = female, po, 2.4 mg/kg, female rats, single oral X842, 2.4 mg/kg (third dose group)
[9] = male, iv, 0.6 mg/kg, male rats, intravenous X842, plasma analyte as labelled
[10] = male, po, 0.6 mg/kg, male rats, single oral X842 0.6 mg/kg, analyte as labelled
[11] = male, po, 2.4 mg/kg, male rats, single oral X842 2.4 mg/kg, analyte as labelled
[12] = male, po, 2.4 mg/kg, male rats, single oral X842, 2.4 mg/kg (third dose group)

Cc1cccc(C)c1CNc1cc(C(=O)NCCOC(=O)CCCC(=O)O)cn2c(C)c(C)nc12 [X842, linaprazan glurate] showed a Cmax at 1 day [1, 3] of 138 ± 7.6 ng/mL, a half-life at 1 day [1, 3] of 1.1 ± 0.2 h and a Cmax at 7 day [1, 4] of 47.2 ± 10.6 ng/mL. It also gave a half-life at 7 day [1, 4] of 2 ± 1.2 h, a half-life at 1 day ([1]; 1.2 mg/kg, male dogs, 7 days of repeat oral X842, Day 1, analyte as labelled) of 2.01 ± 0.73 h and a half-life at 7 day ([1]; 1.2 mg/kg, male dogs, 7 days of repeat oral X842, Day 7, analyte as labelled) of 8.6 ± 10.8 h. For the same compound, the Cmax at 1 day ([1]; 1.2 mg/kg, male dogs, repeat oral X842, Day 1, analyte as labelled) was 26.3 ± 21.6 ng/mL, the Cmax at 7 day ([1]; 1.2 mg/kg, male dogs, repeat oral X842, Day 7, analyte as labelled) was 15.6 ± 10.4 ng/mL and the Cmax ([1]; female dogs, intravenous X842 0.3 mg/kg, analyte as labelled) was 694 ± 225 ng/mL. For the same compound, the half-life ([1]; female dogs, intravenous X842 0.3 mg/kg, analyte as labelled, read-out: t1/2 (converted)) was 0.7 ± 0.1 h, the Cmax ([1]; female dogs, single oral X842 0.3 mg/kg, analyte as labelled) was 6.1 ng/mL and the Cmax ([1]; female dogs, single oral X842 1.2 mg/kg, analyte as labelled) was 37.5 ± 7.6 ng/mL. For the same compound, the half-life ([1]; female dogs, single oral X842 1.2 mg/kg, analyte as labelled, read-out: t1/2 (converted)) was 1.2 ± 0.2 h, the Cmax ([1]; female dogs, single oral X842 4.8 mg/kg, analyte as labelled) was 271 ng/mL and the half-life ([1]; female dogs, single oral X842 4.8 mg/kg, analyte as labelled, read-out: t1/2 (converted)) was 2.7 ± 2.2 h. For the same compound, the half-life ([1]; female dogs, single oral dose, read-out: t1/2 (range over doses)) was 2.1 to 3.2 h, the Cmax ([1]; male dogs, intravenous X842 0.3 mg/kg, analyte as labelled) was 745 ± 157 ng/mL and the half-life ([1]; male dogs, intravenous X842 0.3 mg/kg, analyte as labelled, read-out: t1/2 (converted)) was 0.5 ± 0.1 h. For the same compound, the Cmax ([1]; male dogs, single oral X842 0.3 mg/kg, analyte as labelled) was 5.3 ± 4 ng/mL, the Cmax ([1]; male dogs, single oral X842 1.2 mg/kg, analyte as labelled) was 26.3 ng/mL and the half-life ([1]; male dogs, single oral X842 1.2 mg/kg, analyte as labelled, read-out: t1/2 (converted)) was 2 ± 0.7 h. It also gave a Cmax ([1]; male dogs, single oral X842 4.8 mg/kg, analyte as labelled) of 355 ng/mL, a half-life ([1]; male dogs, single oral X842 4.8 mg/kg, analyte as labelled, read-out: t1/2 (converted)) of 3.4 ± 2.2 h and a half-life ([1]; male dogs, single oral dose, read-out: t1/2 (range over doses)) of 2 to 3.4 h. The half-life ([1]; both sexes, 0.3 mg/kg, dogs, IV administration, similar between the sexes, read-out: t1/2 (converted)) was about 0.6 h, the AUC(0-t) ([1]; female, iv, 0.3 mg/kg, female dogs, intravenous X842 0.3 mg/kg, analyte as labelled, read-out: AUC(0-24h)) was 343 ± 125 ng·h/mL and the AUC(0-t) ([1]; female, po, 0.3 mg/kg, female dogs, single oral X842 0.3 mg/kg, analyte as labelled, read-out: AUC(0-24h)) was 5.1 ± 3.3 ng·h/mL. The AUC(0-t) ([1]; female, po, 1.2 mg/kg, female dogs, repeat oral X842, Day 1, analyte as labelled, read-out: AUC(0-24h) Day 1) was 72.3 ± 18.3 ng·h/mL, the AUC(0-t) ([1]; female, po, 1.2 mg/kg, female dogs, repeat oral X842, Day 7, analyte as labelled, read-out: AUC(0-24h) Day 7) was 69.4 ± 54.1 ng·h/mL and the AUC(0-t) ([1]; female, po, 1.2 mg/kg, female dogs, single oral X842 1.2 mg/kg, analyte as labelled, read-out: AUC(0-24h)) was 72.3 ng·h/mL. The AUC(0-t) ([1]; female, po, 4.8 mg/kg, female dogs, single oral X842 4.8 mg/kg, analyte as labelled, read-out: AUC(0-24h)) was 504 ng·h/mL, the AUC(0-t) ([1]; male, iv, 0.3 mg/kg, male dogs, intravenous X842 0.3 mg/kg, analyte as labelled, read-out: AUC(0-24h)) was 361 ± 118 ng·h/mL and the AUC(0-t) ([1]; male, po, 0.3 mg/kg, male dogs, single oral X842 0.3 mg/kg, analyte as labelled, read-out: AUC(0-24h)) was 5.2 ± 2.3 ng·h/mL. The AUC(0-t) ([1]; male, po, 1.2 mg/kg, male dogs, repeat oral X842, Day 1, analyte as labelled, read-out: AUC(0-24h) Day 1) was 65.1 ± 51.2 ng·h/mL, the AUC(0-t) ([1]; male, po, 1.2 mg/kg, male dogs, repeat oral X842, Day 7, analyte as labelled, read-out: AUC(0-24h) Day 7) was 35.4 ± 8.7 ng·h/mL and the AUC(0-t) ([1]; male, po, 1.2 mg/kg, male dogs, single oral X842 1.2 mg/kg, analyte as labelled, read-out: AUC(0-24h)) was 65.1 ng·h/mL. It also gave an AUC(0-t) ([1]; male, po, 4.8 mg/kg, male dogs, single oral X842 4.8 mg/kg, analyte as labelled, read-out: AUC(0-24h)) of 889 ng·h/mL, a Cmax [2, 5] of 606 ± 284 ng/mL and an AUC(0-t) [2, 5] of 218 ± 101 ng·h/mL. For the same compound, the half-life ([2]; female, iv, 0.6 mg/kg, female rats, intravenous X842, plasma analyte as labelled, read-out: t1/2 (converted)) was 0.4 ± 0.03 h, the Cmax [2, 6] was 8.7 ± 4.9 ng/mL and the AUC(0-t) [2, 6] was 13.8 ± 13.1 ng·h/mL. The half-life ([2]; female, po, 0.6 mg/kg, female rats, single oral X842 0.6 mg/kg, analyte as labelled, read-out: t1/2 (converted)) was 2.8 h, the Cmax [2, 7] was 42.6 ± 17.4 ng/mL and the AUC(0-t) [2, 7] was 85.6 ± 45.6 ng·h/mL. For the same compound, the half-life ([2]; female, po, 2.4 mg/kg, female rats, single oral X842 2.4 mg/kg, analyte as labelled, read-out: t1/2 (converted)) was 4.1 ± 1.2 h, the Cmax [2, 8] was 164 ± 124 ng/mL and the AUC(0-t) [2, 8] was 310 ± 256 ng·h/mL. For the same compound, the half-life ([2]; female, po, 2.4 mg/kg, female rats, single oral X842, 2.4 mg/kg (third dose group), read-out: t1/2 (converted)) was 2.1 ± 0.3 h, the half-life ([2]; female, po, female rats, single-dose oral administration, read-out: t1/2 (range over doses)) was 2.1 to 4.1 h and the Cmax [2, 9] was 448 ± 120 ng/mL. It also gave a half-life ([2]; male, iv, 0.6 mg/kg, male rats, intravenous X842, plasma analyte as labelled (prodrug X842 / parent linaprazan), read-out: t1/2 (converted)) of 0.4 ± 0.1 h, an AUC(0-t) [2, 9] of 146 ± 38 ng·h/mL and a Cmax [2, 10] of 2.5 ± 1.8 ng/mL. For the same compound, the AUC(0-t) [2, 10] was 2.5 ± 2.6 ng·h/mL, the Cmax [2, 11] was 14.6 ± 10.1 ng/mL and the AUC(0-t) [2, 11] was 18.3 ± 10 ng·h/mL. The half-life ([2]; male, po, 2.4 mg/kg, male rats, single oral X842 2.4 mg/kg, analyte as labelled, read-out: t1/2 (converted)) was 2.6 h, the Cmax [2, 12] was 49.7 ± 35.4 ng/mL and the AUC(0-t) [2, 12] was 11.6 ± 77.5 ng·h/mL. For the same compound, the half-life ([2]; male, po, 2.4 mg/kg, male rats, single oral X842, 2.4 mg/kg (third dose group), read-out: t1/2 (converted)) was 2.01 ± 0.18 h, the half-life ([2]; male, po, male rats, single-dose oral administration, read-out: t1/2 (range over doses)) was 2 to 2.7 h and the “Plasma concentration after IV administration” value ([2]; within 0.5 h after IV administration, male and female rats) was “barely detectable”.
